How the values were obtained:
Type in all cases: binding
[1] = biological target: T1, cysteine residue illustrated in Table 1A or Table 2A (Homo sapiens, UniProt O75155); experiment: Competitive cysteine profiling of cell lysate with desthiobiotin iodoacetamide probe (96-well sample prep); settings: UniProt O75155; 100 uM
T1 construct: Cells were resuspended in cold PBS on ice and sonicated with a probe sonicator to achieve lysis; endogenous in cells
Protocol: (§1) In some embodiments, the solution sample (e.g., cell sample, cell lysate sample, or comprising isolated proteins) is incubated with a compound of Formula (I) for analysis of protein-probe interactions. In some instances, the solution sample (e.g., cell sample, cell lysate sample, or comprising isolated proteins) is further incubated in the presence of an additional compound probe prior to addition of the compound of Formula (I). […] In such instances, the solution sample is incubated with a probe and a ligand for competitive protein profiling analysis.
(§2) The following 96-well sample prep protocol was used for sample preparation.
(§3) Cells were resuspended in cold PBS on ice and sonicated with a probe sonicator to achieve lysis. 200 μL of lysate containing 5 mg/ml proteome was treated with 2 μL of 100× compound stock in a 2-mL deep-well plate. The treated lysate was subsequently incubate at 25° C. for 1 hr with shaking at 600 rpm. The treated lysate was further incubated with 2 μL of 10 mM desthiobiotin iodoacetamide probe at 25° C. for 1 hr with shaking at 600 rpm. Next, the lysate was further treat with 20 μL of solution of PBS containing 11 mM MgSO4 and 2.5% Turbonuclease stock and incubated at 25° C. for 20 minutes with shaking at 600 rpm. 1.7 mL ice-cold acetone was added to each well and incubated at −20° C. for 2 hr, followed by max speed (4200 rpm) spin for 45 min. Acetone was then decanted and the plates were blotted to remove acetone. The plates were then dried in open air for 20 minutes. After drying, the plates were then covered with foil seal and stored at −80° C. overnight.
(§4) The next day, samples were re-suspended in 90 μL of solution of 9M urea, 50 mM ammonium bicarbonate and 10 mM DTT by incubating at 65C for 20 min with shaking at 1500 rpm. Next, samples were cooled to 37° C. and then 10 μL of 500 mM iodoacetamide solution (92.48 mg/ml) was added. The samples were then incubated at 37° C. for 30 min with shaking at 600 rpm.
(§5) ZEBA desalting plates were equilibrated 4 times using 250 μL of 2M urea, 50 mM ammonium bicarbonate solution followed by centrifugation at 1500 rpm for 2 minutes. After equilibration was complete, samples were applied to ZEBA desalting plate and spin at 1500 rpm for 2 min on top of 1 mL 96-well deep-well collection plate to buffer exchange samples. 4 μL of solution containing 25 mM CaCl2 and 0.25 mg/mL trypsin was added to the plate and the plate was then incubated at 37° C. for 2 hrs with shaking at 600 rpm. 300 μL of solution containing 5% high-capacity streptavidin agarose slurry in 25 mM Tris-HCl pH 7.5, 150 mM NaCl, and 0.1% NP-40 then added. The plate was incubated at 25° C. for 2 hrs with shaking at 600 rpm. Samples were transferred to 25 μm filter plate and spin at 1000 rpm for 2 min. Samples were then washed 3 times with 0.75 mL of wash buffer (25 mM Tris-HCl pH 7.5, 150 mM NaCl, and 0.1% NP-40) followed by washing 3 times with 0.75 mL PBS, and then 4 times with 0.75 mL water. After the washing step, samples were eluted into polypropylene 96-well plate by addition of 250 µL of 50% MeCN/water, 0.1% formic acid and allowed to gravity drip for 10 min, followed by centrifugation at 1000 rpm for 2 min. Speedvac was used to dry the plates at about 45° C. for […]. Then the plates were covered with foil seal and stored at −20° C.
(§6) Samples were resuspended by addition of 20 μl of 12.5% ACN, 0.1% formic acid solution, covered with foil seal, and incubated at 42° C. for 10 minutes with shaking at 600 rpm. Then add 30 μL of 0.1% formic acid solution was added and the plate was covered and incubated at 42° C. for 10 minutes with shaking at 600 rpm. Seal plate was then sealed with a 96-well silicon mat for analysis.

[2] = biological target: T2, cysteine residue illustrated in Table 1A or Table 2A (Homo sapiens, UniProt Q66K64); experiment: as above; settings: UniProt Q66K64; 100 uM
T2 construct: Cells were resuspended in cold PBS on ice and sonicated with a probe sonicator to achieve lysis; endogenous in cells
Protocol: as §1, §2, §3, §4, §5, §6

[3] = biological target: T3, cysteine residue illustrated in Table 1A or Table 2A (Homo sapiens, UniProt Q9P000); experiment: as above; settings: UniProt Q9P000; 100 uM
T3 construct: Cells were resuspended in cold PBS on ice and sonicated with a probe sonicator to achieve lysis; endogenous in cells
Protocol: as §1, §2, §3, §4, §5, §6

UniProt Q9BZR9 = biological target: T4, UniProt Q9BZR9 (Homo sapiens, UniProt Q9BZR9); experiment: Cysteine liganding, probe competition
T4 construct: 200 μL of lysate containing 5 mg/ml proteome was treated with 2 μL of 100× compound stock; endogenous in cells
T4 sequence (Q9BZR9 1-551): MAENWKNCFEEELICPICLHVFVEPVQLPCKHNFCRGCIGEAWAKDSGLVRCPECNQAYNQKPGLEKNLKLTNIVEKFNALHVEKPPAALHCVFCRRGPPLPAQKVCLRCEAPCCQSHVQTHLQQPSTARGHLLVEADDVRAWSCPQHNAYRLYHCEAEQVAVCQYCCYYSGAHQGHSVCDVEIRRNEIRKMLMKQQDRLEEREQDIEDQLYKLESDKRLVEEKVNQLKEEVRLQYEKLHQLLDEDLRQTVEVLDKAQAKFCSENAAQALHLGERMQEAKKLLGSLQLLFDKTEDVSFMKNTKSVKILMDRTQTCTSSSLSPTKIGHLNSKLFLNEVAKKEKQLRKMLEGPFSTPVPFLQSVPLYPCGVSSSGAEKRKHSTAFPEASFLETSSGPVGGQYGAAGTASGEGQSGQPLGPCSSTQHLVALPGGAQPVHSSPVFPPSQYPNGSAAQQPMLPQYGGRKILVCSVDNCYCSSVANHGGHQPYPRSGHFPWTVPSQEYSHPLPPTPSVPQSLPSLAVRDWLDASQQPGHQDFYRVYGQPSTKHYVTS
Text: as §2

UniProt Q96EX2 = biological target: T5, UniProt Q96EX2 (Homo sapiens, UniProt Q96EX2); experiment: Cysteine liganding, probe competition; settings: for inhibition at 100 µM / inhibition at 500 µM: read-out: percent_inhibition
T5 construct: 200 μL of lysate containing 5 mg/ml proteome was treated with 2 μL of 100× compound stock; endogenous in cells
T5 sequence (Q96EX2 1-444): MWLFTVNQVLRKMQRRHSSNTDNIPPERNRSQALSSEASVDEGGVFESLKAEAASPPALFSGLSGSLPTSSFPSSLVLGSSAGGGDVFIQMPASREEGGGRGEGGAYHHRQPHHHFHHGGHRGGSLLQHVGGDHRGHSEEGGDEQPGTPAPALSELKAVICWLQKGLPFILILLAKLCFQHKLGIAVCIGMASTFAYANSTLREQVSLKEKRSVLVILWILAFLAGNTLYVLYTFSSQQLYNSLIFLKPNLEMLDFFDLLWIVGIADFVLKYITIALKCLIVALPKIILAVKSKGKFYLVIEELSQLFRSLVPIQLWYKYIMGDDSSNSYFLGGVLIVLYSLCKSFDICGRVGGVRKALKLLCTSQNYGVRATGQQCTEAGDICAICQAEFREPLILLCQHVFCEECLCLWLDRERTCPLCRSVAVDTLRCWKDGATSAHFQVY
Text: as §2

Structure (SMILES)	KB03_100 uM_percent_inhibition [1] [%]	KB03_100 uM_percent_inhibition [2] [%]	KB03_100 uM_percent_inhibition [3] [%]	KB03_100 uM_percent_inhibition (UniProt Q9BZR9; 100 uM) [%]	KB02_100 uM_percent_inhibition [1] [%]	inhibition at 100 µM (UniProt Q96EX2) [%]	inhibition at 500 µM (UniProt Q96EX2; 500 uM) [%]	KB05_100 uM_percent_inhibition [2] [%]	KB05_100 uM_percent_inhibition [3] [%]	percent_inhibition (UniProt Q96EX2; 500 uM) [%]	KB05_100 uM_percent_inhibition (UniProt Q9BZR9; 100 uM) [%]	inhibition at 100 µM (UniProt Q9BZR9; read-out: KB05_100 uM_percent_inhibition) [%]
O=C(CCl)Nc1cc(C(F)(F)F)cc(C(F)(F)F)c1 [KBO3]	31	31	30	39								
COc1ccc2c(c1)CCCN2C(=O)CCl [KB02]					24	44	42					
C=CC(=O)N(c1ccccc1)c1ccc(Br)cc1 [KB05]						17	16	11	19	29	16	10

Source: patent US20200239530A1, “COMPOUNDS AND METHODS OF MODULATING PROTEIN DEGRADATION” (Vividion Therapeutics, Inc., priority 2017, published 2020)
